Laboratory results taken from paper PMC5218480 (PLoS ONE, 2017).

Test system: MV-4-11 cells
Assay: Gene expression microarray analysis (Affymetrix PrimeView) and GSEA
Assay type: cell-based, human
Parameters: RFU PODN (11730768_x_at) / Fold change /veh PODN (11730768_x_at) / RFU LINC00158 (11744669_a_at) / Fold change /veh LINC00158 (11744669_a_at) / RFU DUSP10 (11751237_a_at) / Fold change /veh DUSP10 (11751237_a_at) / RFU ID3 (11757404_x_at) / Fold change /veh ID3 (11757404_x_at) / RFU PLEKHG5 (11737974_s_at) / Fold change /veh PLEKHG5 (11737974_s_at) / RFU LRRC4B (11730491_at) / Fold change /veh LRRC4B (11730491_at) / RFU GIMAP4 (11747438_a_at) / Fold change /veh GIMAP4 (11747438_a_at) / RFU KRT8 (11758183_x_at) / Fold change /veh KRT8 (11758183_x_at) / RFU CNN1 (11734310_a_at) / Fold change /veh CNN1 (11734310_a_at) / RFU VPS37D (11726825_at) / Fold change /veh VPS37D (11726825_at) / RFU C10orf10 (11716522_x_at) / Fold change /veh C10orf10 (11716522_x_at) / RFU KIR2DL2 /// KIR2DL4 /// KIR2DL5A /// KIR2DL5B /// KIR2DS1 /// KIR2DS2 /// KIR2DS3 /// KIR2DS4 /// KIR3DL3 /// KIR3DL3 /// KIR3DS1 (11738374_at) / Fold change /veh KIR2DL2 /// KIR2DL4 /// KIR2DL5A /// KIR2DL5B /// KIR2DS1 /// KIR2DS2 /// KIR2DS3 /// KIR2DS4 /// KIR3DL3 /// KIR3DL3 /// KIR3DS1 (11738374_at) / RFU C1QL1 (11718748_at) / Fold change /veh C1QL1 (11718748_at) / RFU TMPRSS4 (11747572_a_at) / Fold change /veh TMPRSS4 (11747572_a_at) / RFU HAMP (11756126_x_at) / Fold change /veh HAMP (11756126_x_at) / RFU RNFT2 (11725882_a_at) / Fold change /veh RNFT2 (11725882_a_at) / RFU NR4A2 (11747474_a_at) / Fold change /veh NR4A2 (11747474_a_at) / RFU ABCC12 (11746883_a_at) / Fold change /veh ABCC12 (11746883_a_at) / RFU TMEM136 (11760407_x_at) / Fold change /veh TMEM136 (11760407_x_at) / RFU CLDN22 /// WWC2 (11732394_at) / Fold change /veh CLDN22 /// WWC2 (11732394_at) / RFU HLA-DPB1 (11760878_x_at) / Fold change /veh HLA-DPB1 (11760878_x_at) / RFU SPINT1 (11716480_a_at) / Fold change /veh SPINT1 (11716480_a_at) / RFU GAP43 (11754022_s_at) / Fold change /veh GAP43 (11754022_s_at) / RFU A4GNT (11735810_at) / Fold change /veh A4GNT (11735810_at) / RFU PRB3 (11715151_x_at) / Fold change /veh PRB3 (11715151_x_at) / RFU TUBB4B (11761932_at) / Fold change /veh TUBB4B (11761932_at) / RFU CAPN14 (11732068_a_at) / Fold change /veh CAPN14 (11732068_a_at) / RFU TMCC2 (11721928_a_at) / Fold change /veh TMCC2 (11721928_a_at) / RFU IRGQ (11745062_a_at) / Fold change /veh IRGQ (11745062_a_at) / RFU FAM174B (11720279_a_at) / Fold change /veh FAM174B (11720279_a_at) / RFU TMPRSS4 (11748680_a_at) / Fold change /veh TMPRSS4 (11748680_a_at) / RFU FAM212B (11763350_a_at) / Fold change /veh FAM212B (11763350_a_at) / RFU PLEKHG5 (11743358_a_at) / Fold change /veh PLEKHG5 (11743358_a_at) / RFU ZSCAN30 (11745921_a_at) / Fold change /veh ZSCAN30 (11745921_a_at) / RFU CMKLR1 (11741424_a_at) / Fold change /veh CMKLR1 (11741424_a_at) / RFU LOC101060620 /// MAPK8IP1 (11723275_at) / Fold change /veh LOC101060620 /// MAPK8IP1 (11723275_at) / RFU SPTSSB (11747773_x_at) / Fold change /veh SPTSSB (11747773_x_at) / RFU PRSS12 (11739890_at) / Fold change /veh PRSS12 (11739890_at) / RFU BIN1 (11741810_x_at) / Fold change /veh BIN1 (11741810_x_at) / RFU WNT11 (11732464_a_at) / Fold change /veh WNT11 (11732464_a_at) / RFU C10orf10 (11716521_a_at) / Fold change /veh C10orf10 (11716521_a_at) / RFU C5orf56 (11738089_at) / Fold change /veh C5orf56 (11738089_at) / RFU CYB561 (11721691_x_at) / Fold change /veh CYB561 (11721691_x_at) / RFU ANKRD19P (11752326_a_at) / Fold change /veh ANKRD19P (11752326_a_at) / RFU OR2T12 /// OR2T33 /// OR2T8 (11738714_s_at) / Fold change /veh OR2T12 /// OR2T33 /// OR2T8 (11738714_s_at) / RFU VCAN (11748164_a_at) / Fold change /veh VCAN (11748164_a_at) / RFU JSRP1 (11732532_at) / Fold change /veh JSRP1 (11732532_at) / RFU KRTAP10-11 (11738290_x_at) / Fold change /veh KRTAP10-11 (11738290_x_at) / RFU MYO3A (11730013_a_at) / Fold change /veh MYO3A (11730013_a_at) / RFU EBF3 (11725865_a_at) / Fold change /veh EBF3 (11725865_a_at) / RFU CAMK2N1 (11719241_x_at) / Fold change /veh CAMK2N1 (11719241_x_at) / RFU C5orf56 (11738088_a_at) / Fold change /veh C5orf56 (11738088_a_at) / RFU OLFML3 (11715873_a_at) / Fold change /veh OLFML3 (11715873_a_at) / RFU LOC100653217 /// NTM (11731650_a_at) / Fold change /veh LOC100653217 /// NTM (11731650_a_at) / RFU MAPK11 (11762145_a_at) / Fold change /veh MAPK11 (11762145_a_at) / RFU FIZ1 (11724087_x_at) / Fold change /veh FIZ1 (11724087_x_at) / RFU OASL (11726364_x_at) / Fold change /veh OASL (11726364_x_at) / RFU SOX15 (11748057_x_at) / Fold change /veh SOX15 (11748057_x_at) / RFU CD79A (11719716_a_at) / Fold change /veh CD79A (11719716_a_at) / RFU HIST1H1D (11736915_at) / Fold change /veh HIST1H1D (11736915_at) / RFU CASKIN2 (11723855_a_at) / Fold change /veh CASKIN2 (11723855_a_at) / RFU LOC730098 (11760151_x_at) / Fold change /veh LOC730098 (11760151_x_at) / RFU OR4N2 (11742367_at) / Fold change /veh OR4N2 (11742367_at) / RFU PRRT2 (11749266_a_at) / Fold change /veh PRRT2 (11749266_a_at) / RFU SNX32 (11753110_a_at) / Fold change /veh SNX32 (11753110_a_at) / RFU CDHR5 (11726645_a_at) / Fold change /veh CDHR5 (11726645_a_at) / RFU RCAN1 (11760418_a_at) / Fold change /veh RCAN1 (11760418_a_at) / RFU FAM167A (11723789_a_at) / Fold change /veh FAM167A (11723789_a_at) / RFU FAM26E (11764081_at) / Fold change /veh FAM26E (11764081_at) / RFU ISYNA1 (11749810_s_at) / Fold change /veh ISYNA1 (11749810_s_at) / RFU ACY1 (11761880_at) / Fold change /veh ACY1 (11761880_at) / RFU 11764098_at / Fold change /veh 11764098_at / RFU SAMD14 (11745864_x_at) / Fold change /veh SAMD14 (11745864_x_at) / RFU NPB (11741838_a_at) / Fold change /veh NPB (11741838_a_at) / RFU TMPRSS6 (11731388_a_at) / Fold change /veh TMPRSS6 (11731388_a_at) / RFU KRTAP10-2 (11738614_at) / Fold change /veh KRTAP10-2 (11738614_at) / RFU ARHGAP8 /// PRR5-ARHGAP8 (11727945_x_at) / Fold change /veh ARHGAP8 /// PRR5-ARHGAP8 (11727945_x_at) / RFU KRTAP5-7 /// NADSYN1 (11734609_at) / Fold change /veh KRTAP5-7 /// NADSYN1 (11734609_at) / RFU RASL12 (11751679_a_at) / Fold change /veh RASL12 (11751679_a_at) / RFU CDKN2B (11736163_a_at) / Fold change /veh CDKN2B (11736163_a_at) / RFU PRF1 (11729649_at) / Fold change /veh PRF1 (11729649_at) / RFU, ZNF638 /// ZNF638-IT1 / Fold change vs veh, ZNF638 /// ZNF638-IT1 / RFU, PANK3 / Fold change vs veh, PANK3 / RFU, SH3YL1 / Fold change vs veh, SH3YL1 / RFU, ZEB2 / Fold change vs veh, ZEB2 / RFU, NRIP1 / Fold change vs veh, NRIP1 / RFU, PTTG1IP / Fold change vs veh, PTTG1IP / RFU, CAPN2 / Fold change vs veh, CAPN2 / RFU, MED14 / Fold change vs veh, MED14 / RFU, SNORA58 / Fold change vs veh, SNORA58 / RFU, C1orf63 / Fold change vs veh, C1orf63 / RFU, LRRFIP1 / Fold change vs veh, LRRFIP1 / RFU, NDUFAF7 / Fold change vs veh, NDUFAF7 / RFU, SLC12A2 / Fold change vs veh, SLC12A2 / RFU, IBTK / Fold change vs veh, IBTK / RFU, ESF1 / Fold change vs veh, ESF1 / Fold change vs veh, TMEM50B / RFU, TAOK1 / Fold change vs veh, TAOK1 / RFU, ACBD3 / Fold change vs veh, ACBD3 / RFU, TMA16 / Fold change vs veh, TMA16 / RFU, RWDD3 / Fold change vs veh, RWDD3 / RFU, BCAT1 / Fold change vs veh, BCAT1 / RFU, EDEM3 / Fold change vs veh, EDEM3 / RFU, TMEM33 / Fold change vs veh, TMEM33 / RFU, WDR75 / Fold change vs veh, WDR75 / RFU, AHCTF1 / Fold change vs veh, AHCTF1 / RFU, TFRC / Fold change vs veh, TFRC / RFU, ZDHHC17 / Fold change vs veh, ZDHHC17 / RFU, NOM1 / Fold change vs veh, NOM1 / RFU, ARL8B / Fold change vs veh, ARL8B / RFU, ZBTB11 / Fold change vs veh, ZBTB11 / RFU, TAMM41 / Fold change vs veh, TAMM41 / RFU, KIAA1704 /// LOC100996395 / Fold change vs veh, KIAA1704 /// LOC100996395 / RFU, ING1 / Fold change vs veh, ING1 / RFU, TRMT61B / Fold change vs veh, TRMT61B / RFU, FUBP3 / Fold change vs veh, FUBP3 / RFU, TP53 / Fold change vs veh, TP53 / RFU, TNKS2 / Fold change vs veh, TNKS2 / RFU, ZFP14 / Fold change vs veh, ZFP14 / RFU, ACTR2 / Fold change vs veh, ACTR2 / RFU, PPP3R1 / Fold change vs veh, PPP3R1 / RFU, PIK3R1 / Fold change vs veh, PIK3R1 / RFU, HNRNPA1 / Fold change vs veh, HNRNPA1 / RFU, RNF170 / Fold change vs veh, RNF170 / RFU, ZNF28 / Fold change vs veh, ZNF28 / RFU, RNGTT / Fold change vs veh, RNGTT / RFU, OGT / Fold change vs veh, OGT / RFU, BRD1 / Fold change vs veh, BRD1 / RFU, MARS / Fold change vs veh, MARS / RFU, ZNF655 / Fold change vs veh, ZNF655 / RFU, FAHD1 / Fold change vs veh, FAHD1 / RFU, BDP1 / Fold change vs veh, BDP1 / RFU, LRRCC1 / Fold change vs veh, LRRCC1 / RFU, ARID1A / Fold change vs veh, ARID1A / RFU, ZNF146 / Fold change vs veh, ZNF146 / RFU, ZNF330 / Fold change vs veh, ZNF330 / RFU, GPN3 / Fold change vs veh, GPN3 / RFU, C9orf123 / Fold change vs veh, C9orf123 / RFU, N4BP2L2 / Fold change vs veh, N4BP2L2 / RFU, ARFIP1 / Fold change vs veh, ARFIP1 / RFU, FAM179B / Fold change vs veh, FAM179B / RFU, BCL10 / Fold change vs veh, BCL10 / RFU, UHRF1BP1L / Fold change vs veh, UHRF1BP1L / RFU, BET1 / Fold change vs veh, BET1 / RFU, CNOT2 / Fold change vs veh, CNOT2 / RFU, ZNF268 / Fold change vs veh, ZNF268 / Fold change vs veh, ZNF507 / RFU, DGCR2 / Fold change vs veh, DGCR2 / RFU, WDSUB1 / Fold change vs veh, WDSUB1 / Fold change vs veh, HSP90B1 /// MIR3652 / RFU, ADSS / Fold change vs veh, ADSS / RFU, GK / Fold change vs veh, GK / RFU, ZNF148 / Fold change vs veh, ZNF148 / RFU, TAF9 / Fold change vs veh, TAF9 / RFU, SLC1A5 / Fold change vs veh, SLC1A5 / RFU, SLMO2 / Fold change vs veh, SLMO2 / RFU, ABCC4 / Fold change vs veh, ABCC4 / RFU, LOC101060439 /// RAP1B / Fold change vs veh, LOC101060439 /// RAP1B / RFU, RFX7 / Fold change vs veh, RFX7 / RFU, GTPBP10 / Fold change vs veh, GTPBP10 / RFU, CNEP1R1 / Fold change vs veh, CNEP1R1 / RFU, BIVM-ERCC5 /// ERCC5 / Fold change vs veh, BIVM-ERCC5 /// ERCC5 / RFU, ILF3 / Fold change vs veh, ILF3 / RFU 11762660_at / Fold change /veh 11762660_at / RFU VCAN (11757783_s_at) / Fold change /veh VCAN (11757783_s_at) / RFU DDX43 (11728927_at) / Fold change /veh DDX43 (11728927_at) / RFU KRT8 (11758188_x_at) / Fold change /veh KRT8 (11758188_x_at) / RFU NKD1 (11759106_at) / Fold change /veh NKD1 (11759106_at) / RFU SRD5A1 (11742802_a_at) / Fold change /veh SRD5A1 (11742802_a_at) / RFU TPSAB1 /// TPSB2 (11721975_s_at) / Fold change /veh TPSAB1 /// TPSB2 (11721975_s_at) / RFU GSTM3 (11746129_a_at) / Fold change /veh GSTM3 (11746129_a_at) / RFU IL23R (11737362_x_at) / Fold change /veh IL23R (11737362_x_at) / RFU TMEM51 (11727254_a_at) / Fold change /veh TMEM51 (11727254_a_at) / RFU PIWIL2 (11732686_x_at) / Fold change /veh PIWIL2 (11732686_x_at) / RFU ORM1 (11744905_x_at) / Fold change /veh ORM1 (11744905_x_at) / RFU CCDC152 (11743942_at) / Fold change /veh CCDC152 (11743942_at) / RFU ECM1 (11717891_a_at) / Fold change /veh ECM1 (11717891_a_at) / RFU IL23R (11748794_a_at) / Fold change /veh IL23R (11748794_a_at) / RFU TNFAIP8L3 (11732012_x_at) / Fold change /veh TNFAIP8L3 (11732012_x_at) / RFU MBOAT4 (11741988_at) / Fold change /veh MBOAT4 (11741988_at) / RFU 11764193_at / Fold change /veh 11764193_at / RFU TMEM53 (11763286_at) / Fold change /veh TMEM53 (11763286_at) / RFU MAGEB2 (11727129_at) / Fold change /veh MAGEB2 (11727129_at) / RFU TMEM200A (11744735_a_at) / Fold change /veh TMEM200A (11744735_a_at) / RFU CCDC152 (11751479_a_at) / Fold change /veh CCDC152 (11751479_a_at) / RFU FAM211A (11726209_a_at) / Fold change /veh FAM211A (11726209_a_at) / RFU RGS16 (11746705_a_at) / Fold change /veh RGS16 (11746705_a_at) / RFU VCAN (11755009_s_at) / Fold change /veh VCAN (11755009_s_at) / RFU RHOB (11743442_s_at) / Fold change /veh RHOB (11743442_s_at) / RFU RGS16 (11720943_a_at) / Fold change /veh RGS16 (11720943_a_at) / RFU RGS16 (11720944_at) / Fold change /veh RGS16 (11720944_at) / RFU, VPS4B / Fold change vs veh, VPS4B / RFU, CREB1 / Fold change vs veh, CREB1 / RFU, DNAJC13 / Fold change vs veh, DNAJC13 / RFU, GNAQ / Fold change vs veh, GNAQ / RFU, CDK5R1 / Fold change vs veh, CDK5R1 / RFU, ZRANB3 / Fold change vs veh, ZRANB3 / RFU, CUL4A / Fold change vs veh, CUL4A / RFU, CCNY / Fold change vs veh, CCNY / RFU, UFL1 / Fold change vs veh, UFL1 / RFU, COG3 / Fold change vs veh, COG3 / RFU, DIAPH2 / Fold change vs veh, DIAPH2 / RFU, SKA2 / Fold change vs veh, SKA2 / RFU, AFF3 / Fold change vs veh, AFF3 / RFU, LMF1 / Fold change vs veh, LMF1 / RFU, IPO11 / Fold change vs veh, IPO11 / RFU, DFFB / Fold change vs veh, DFFB / RFU, FOXP1 / Fold change vs veh, FOXP1 / RFU, CARD8 / Fold change vs veh, CARD8 / RFU, STRN3 / Fold change vs veh, STRN3 / RFU, ADK / Fold change vs veh, ADK / RFU, RASSF2 / Fold change vs veh, RASSF2 / RFU, WIPF1 / Fold change vs veh, WIPF1 / RFU, LARP1B / Fold change vs veh, LARP1B / RFU, RASA1 / Fold change vs veh, RASA1 / RFU, RB1 / Fold change vs veh, RB1 / RFU, PPFIA1 / Fold change vs veh, PPFIA1 / RFU, MAT2A / Fold change vs veh, MAT2A / RFU, CCT5 / Fold change vs veh, CCT5 / RFU, WDR92 / Fold change vs veh, WDR92 / RFU, CUX1 / Fold change vs veh, CUX1 / RFU, TTC7A / Fold change vs veh, TTC7A / RFU, TMEM135 / Fold change vs veh, TMEM135 / RFU, DEPTOR / Fold change vs veh, DEPTOR / RFU, CPM / Fold change vs veh, CPM / RFU, DNAJB6 / Fold change vs veh, DNAJB6 / RFU, CACNA2D3 / Fold change vs veh, CACNA2D3 / RFU, DTX4 / Fold change vs veh, DTX4 / RFU, TFCP2 / Fold change vs veh, TFCP2 / RFU, GMCL1 /// GMCL1P1 / Fold change vs veh, GMCL1 /// GMCL1P1 / RFU, AEBP2 / Fold change vs veh, AEBP2 / RFU, SNHG1 /// SNORD22 /// SNORD25 /// SNORD26 /// SNORD27 /// SNORD28 /// SNORD29 /// SNORD31 / Fold change vs veh, SNHG1 /// SNORD22 /// SNORD25 /// SNORD26 /// SNORD27 /// SNORD28 /// SNORD29 /// SNORD31 / Fold change (Aza/veh), C12orf56 (ProbeSet 11735607_a_at) / Fold change (ACY-1035/veh), C12orf56 (ProbeSet 11735607_a_at) / Fold change (Aza/veh), FGFR1OP (ProbeSet 11751329_s_at) / Fold change (ACY-1035/veh), FGFR1OP (ProbeSet 11751329_s_at) / Fold change (Aza/veh), VPS36 (ProbeSet 11739960_a_at) / Fold change (ACY-1035/veh), VPS36 (ProbeSet 11739960_a_at) / RFU SYPL1 (11715823_x_at) / Fold change /veh SYPL1 (11715823_x_at) / RFU IGFBP7 (11715501_s_at) / Fold change /veh IGFBP7 (11715501_s_at) / RFU REEP3 (11722064_at) / Fold change /veh REEP3 (11722064_at) / RFU IGLL1 (11728026_x_at) / Fold change /veh IGLL1 (11728026_x_at): dose or concentration left out as unconfirmed
Details: MV-4-11 cells, 48 hours

Nc1ccc(-c2cccs2)cc1NC(=O)c1ccc2c(c1)cc(C1CC1)n2CCN1CCOCC1 [ACY-1035]
RFU ORM1 (11744905_x_at): 9.21 RFU
